Measurements as given in US10118954B2, “Apelin analogues” (University of Ulster, priority 2014, dated 2018).

Test system: NIH Swiss mice fed a high-fat diet for 150 days
Assay: Acute and delayed i.p. glucose tolerance test, blood glucose and plasma insulin
Assay type: in vivo
Settings: fatty acid derived agonists
How it was run: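 Diet-induced obese-diabetic mice (high-fat diet 150 days, 18 h fasted) received i.p. glucose (18 mmol/kg) alone or with apelin analogues (25 nmol/kg), or analogues given 2, 8 or 16 h beforehand. Tail blood glucose and plasma insulin sampled at 0, 15, 30, 60, 105 min; n=8, mean±SEM.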

[1] = 16 h delayed i.p. glucose tolerance test, 25 nmol/kg
[2] = acute i.p. glucose tolerance test, 25 nmol/kg

SMILES: CCCCCCCCCCCCCCCC(=O)N[C@@H](CCC(=O)NCCCC[C@H](NC(=O)[C@H](Cc1c[nH]cn1)NC(=O)[C@H](CO)NC(=O)[C@H](CC(C)C)NC(=O)[C@H](CCCNC(=N)N)NC(=O)[C@@H]1CCCN1C(=O)[C@H](CCCNC(=N)N)NC(=O)[C@@H]1CCC(=O)N1)C(=O)NCC(=O)N1CCC[C@H]1C(=O)N[C@@H](CCSC)C(=O)N1CCC[C@H]1C(=O)N[C@@H](Cc1ccccc1)C(N)=O)C(=O)O [pGlu(Lys^8GluPAL)apelin-13-amide]
- Rank order on basis of anti-hyperglycaemic efficacy (16 h delay): 1
- Blood glucose as percent of glucose-alone control (lower = stronger glucose lowering) [1]: 57% (**)
- Insulin secretion, where glucose alone = 100% [1]: 150% (***)
- Rank order on basis of anti-hyperglycaemic efficacy (acute): 1
- Glucose lowering, where glucose alone = 100% [2]: 79%
- Insulin secretion, where glucose alone = 100% [2]: 119% (*)
